Data taken from patent US7709700B2, “Method for improving plant transformation efficiency by adding copper ion” (Japan Tobacco Inc., priority 2003, dated 2010).
Read-outs that look alike come from different tables or passages of the source.

Experiments:
[1] = tested on: shoots having emerged from ripe seeds of barley; details: cited from earlier work
[2] = tested on: calli obtained by culturing immature embryos of barley; details: media containing copper sulfate; cited from earlier work
[3] = tested on: regenerated plants of rice (cultivar: Yukihikari); details: 10 μM in N6R regeneration medium, 3 weeks; FIG. 9
Method: Immature embryos of rice (cultivar: Yukihikari) were inoculated with Agrobacterium tumefaciens LBA4404 (pSB134) and cultured on nN6CC medium (N6 salts, N6 vitamins, 0.5 g/l casamino acids, 0.5 g/l L-proline, 1 mg/l 2,4-D, 0.5 mg/l NAA, 0.1 mg/l 6BA, 20 g/l sucrose, 55 g/l sorbitol, 250 mg/l cefotaxime, 250 mg/l carbenicillin, 5 g/l Gelrite, pH 5.8) containing hygromycin to give a transformed callus. The transformed callus was cut into a size of about 2 mm and seeded on N6R regeneration medium (N6 salts with major salts reduced to ½, N6 vitamins, AA amino acids, 1 g/l casamino acids, 0.5 mg/l kinetin, 20 g/l sucrose, 30 g/l sorbitol, 4 g/l Gelrite, pH 5.8) containing 10 μM CuSO4.5H2O or copper gluconate, and hygromycin. After incubation at 25° C. under illumination for 3 weeks, the leaf length of regenerated plants was measured.

[4] = tested on: immature embryos of maize (cultivar: A188); details: 3 days
[5] = tested on: immature embryos of maize (cultivar: H99)
[6] = tested on: immature embryos of rice (cultivar: IR64); details: 5 μM copper sulfate in co-culture medium, 1 week; FIG. 4
Method: Into an Eppendorf tube containing aseptically collected immature embryos (cultivar: IR64) was added 1 ml of the Agrobacterium suspension and the tube was agitated for 30 seconds in a vortex mixer and then allowed to stand at room temperature for 5 minutes.

[7] = tested on: calli obtained by culturing immature embryos of rice; details: media containing copper sulfate; cited from earlier work
[8] = tested on: regenerated plants of maize (cultivar: A188); details: 10 μM in LSZ regeneration medium, 3 weeks; FIG. 8
Method: The transformed callus was cut into a size of about 2 mm and plated on LSZ regeneration medium containing 10 μM CuSO4.5H2O or copper gluconate, and PPT. After incubation at 25° C. under illumination for 3 weeks, the leaf length of regenerated plants was measured.

[9] = tested on: immature embryos of maize (cultivar: A188)
From the text: Transformation efficiency can be calculated by e.g., counting the number of regenerated plants expressing the GUS gene as transformants among those obtained from inoculated immature embryos and dividing the total number by the number of inoculated immature embryos. Alternatively, it can also be calculated by counting the number of regenerated plants showing resistance against a selective pressure as transformants and dividing the total number by the number of inoculated immature embryos.
(§1) These calli were cultured on the same medium containing 10 mg/l PPT for 6 weeks under the same conditions. Grown PPT-resistant calli were seeded on LSZ regeneration medium (LSD 1.5 medium deprived of 2,4-D and supplemented with 5 mg/l zeatin) and incubated at 25° C. under illumination for 2-3 weeks. Leaf segments of regenerated plants were excised and assessed for the expression of the GUS gene by X-gluc.
After co-culture for 1 week, the calli grown from immature embryos (cultivar: A188) cultured on a selective medium containing PPT for 1 week were evaluated on a scale of four ratings from 0 (no callus formed) to 3 (the entire scutellum formed callus).

[10] = tested on: immature embryos of rice (cultivar: Yukihikari); details: 0-50 μM in inoculum liquid media; co-culture one week; three experiments; FIG. 7
Method: An Agrobacterium tumefaciens super-binary vector designated LBA4404 (pSB134) cultured on AB medium containing 50 mg/l hygromycin and 50 mg/l spectinomycin for 3 to 4 days was scraped with a platinum loop and suspended at a concentration of about 10^9 cfu/ml in 1 ml of AA1 liquid medium containing 100 μM acetosyringone and 0-50 μM CuSO4.5H2O or copper gluconate. Into an Eppendorf tube containing aseptically collected immature embryos (cultivar: Yukihikari) was added 1 ml of the Agrobacterium suspension and the tube was agitated for 30 seconds in a vortex mixer and then allowed to stand at room temperature for 5 minutes. The immature embryos were seeded on nN6-As medium and incubated in darkness at 25° C. for one week.
The weight of co-cultured immature embryos was measured.

[11] = tested on: anthers of wheat; details: medium containing 10 mg/l copper sulfate and 2.5-5 mg/l silver nitrate; cited from earlier work
[12] = tested on: immature embryos of maize (cultivar: H99); details: media containing 1-10 μM copper sulfate (1-100 μM tested); but slightly; cited from earlier work
[13] = tested on: immature embryos of maize (cultivar: A188); details: co-culture 1 week on media containing copper sulfate, then 1 week on PPT selective medium; FIG. 3
Method: as §1
After co-culture for 1 week, the calli grown from immature embryos (cultivar: A188) cultured on a selective medium containing PPT for 1 week were evaluated on a scale of four ratings from 0 (no callus formed) to 3 (the entire scutellum formed callus). […] Further selection on a medium containing PPT and incubation of the resulting calli in a regeneration medium containing PPT gave PPT-resistant plants. Leaf segments of these plants were excised and assessed for the expression of the GUS gene.

[14] = tested on: immature embryos of maize (cultivar: A188); test: Callus formation of immature embryos after 7 days on co-culture media; assay type: cell-based; details: 1 week, FIG. 6
[15] = 1 μM CuSO4 in co-culture medium, 13 inoculated immature embryos
[16] = 5 μM CuSO4 in co-culture medium, 13 inoculated immature embryos
[17] = 10 μM CuSO4 in co-culture medium, 14 inoculated immature embryos

Compound: OC[C@H]1O[C@H](O[C@H]2[C@H](O)[C@@H](O)C(O)O[C@@H]2CO)[C@H](O)[C@@H](O)[C@@H]1O (mixture of isomers) [maltose, reference compound]
- brown tissue when shoot meristematic cultures are induced [1]: effective for decreasing brown tissue

Compound: O=S(=O)([O-])[O-].[Cu+2] [copper sulfate]
- regeneration ratio or number of regenerated plants per callus [2]: increases
- leaf length of regenerated plants vs control regeneration medium [3]: significantly longer
- area of the scutellum showing transient expression of the GUS gene vs control medium ([4]; 1, 5 and 10 μM copper sulfate in co-culture media, with or without heat/centrifugation pretreatment, FIG. 1): wider area
- average callus diameter greater than that on control co-culture medium [5]: ≥ 2 mm
- area of the scutellum showing transient expression of the GUS gene vs control medium [6]: wider area
- regeneration ratio or number of regenerated plants per callus [7]: increases
- leaf length of regenerated plants vs control regeneration medium [8]: significantly longer
- Transformation efficiency (B/A, %) ([9]; 1 μM CuSO4 in co-culture medium): 15.4%
- Number of GUS-positive plants (B) [9, 15]: 2
- Number of regenerated plants [9, 15]: 2
- Transformation efficiency (B/A, %) ([9]; 5 μM CuSO4 in co-culture medium): 46.2%
- Number of GUS-positive plants (B) [9, 16]: 6
- Number of regenerated plants [9, 16]: 6
- Transformation efficiency (B/A, %) ([9]; 10 μM CuSO4 in co-culture medium): 35.7%
- Number of GUS-positive plants (B) [9, 17]: 5
- Number of regenerated plants [9, 17]: 6
- growth (weight) of co-cultured immature embryos vs control medium [10]: more active growth
- embryoid formation [11]: increases
- shoot growth when shoot meristematic cultures are induced [1]: effective for promoting shoot growth
- induction ratio of shoot meristematic cultures (SMCs) ([1]; medium containing 5 μM copper sulfate and 30 g/l maltose): increases
- callus formation from immature embryos [12]: improved
- PPT-resistant callus formation vs control medium [13]: higher callus formation

Compound: O=[N+]([O-])[O-].[Ag+] [silver nitrate, reference compound]
- callus growth vs control medium ([5]; 5 μM silver nitrate in co-culture medium, 3 days, then about 4 weeks without selection, FIG. 2): nearly comparable

Compound: copper gluconate
- leaf length of regenerated plants vs control regeneration medium [3]: significantly longer
- area of the scutellum showing transient expression of the GUS gene vs control medium ([4]; 1, 5 and 10 μFM copper gluconate in co-culture media, heat/centrifugation pretreatment, FIG. 5): wider area
- leaf length of regenerated plants vs control regeneration medium [8]: significantly longer
- growth (weight) of co-cultured immature embryos vs control medium [10]: more active growth
- callus formation vs medium lacking copper gluconate ([14]; 1, 5 and 10 μM copper gluconate in co-culture media): higher callus formation
- callus formation vs control ([14]; 5 and 10 μM copper gluconate in co-culture media): significantly higher callus formation
